Assay results taken from ChEMBL document CHEMBL1201862, “PubChem BioAssay data set” (2004).
The source made the active and inactive calls.

Tests used:
[1] = viability loss in HepG2 hepatoma cells – cell-based, ATP luminescence, cherry-pick, activator set 2, cytotoxicity control, dose response (AID 1053143); type: functional
[2] = biological target: Mitogen-activated protein kinase 10 (Homo sapiens, UniProt P53779); test: Dose response biochemical screening assay for inhibitors of c-Jun N-Terminal Kinase 3 (JNK3). [Related pubchem assays: 746 ]
[3] = biological target: T1, Lytic switch protein BZLF1 (Epstein-Barr virus (strain B95-8) (HHV-4) (Human herpesvirus 4), UniProt P03206); test: inhibition of BZLF1 ZTA DNA binding – biochemical, fluorescence polarization, Epstein-Barr virus, 1536-well, counter-screen for EBNA-1 inhibitor project, dose response (AID 2377); parameters: species or system human gammaherpesvirus 4;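 note: fluorescence polarization of Cy5-labelled ZRE DNA probe bound by purified Zta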
T1 sequence (P03206 whole entry): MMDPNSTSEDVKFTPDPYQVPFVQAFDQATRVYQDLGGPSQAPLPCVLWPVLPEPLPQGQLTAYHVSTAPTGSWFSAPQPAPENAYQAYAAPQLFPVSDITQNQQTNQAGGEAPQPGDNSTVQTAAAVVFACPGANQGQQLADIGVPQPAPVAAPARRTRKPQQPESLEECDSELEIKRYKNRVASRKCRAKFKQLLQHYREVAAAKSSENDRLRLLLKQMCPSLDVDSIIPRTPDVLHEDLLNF

[4] = biological target: T2, Epstein-Barr nuclear antigen 1 (Epstein-Barr virus (strain B95-8) (HHV-4) (Human herpesvirus 4), UniProt P03211); test: inhibition of EBV nuclear antigen 1 DNA binding – biochemical, fluorescence polarization, 1536-well, dose response (AID 2381); parameters: species or system human gammaherpesvirus 4;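 note: fluorescence polarization of a Cy5 DNA probe bound by EBNA-1 protein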
T2 sequence (P03211 whole entry): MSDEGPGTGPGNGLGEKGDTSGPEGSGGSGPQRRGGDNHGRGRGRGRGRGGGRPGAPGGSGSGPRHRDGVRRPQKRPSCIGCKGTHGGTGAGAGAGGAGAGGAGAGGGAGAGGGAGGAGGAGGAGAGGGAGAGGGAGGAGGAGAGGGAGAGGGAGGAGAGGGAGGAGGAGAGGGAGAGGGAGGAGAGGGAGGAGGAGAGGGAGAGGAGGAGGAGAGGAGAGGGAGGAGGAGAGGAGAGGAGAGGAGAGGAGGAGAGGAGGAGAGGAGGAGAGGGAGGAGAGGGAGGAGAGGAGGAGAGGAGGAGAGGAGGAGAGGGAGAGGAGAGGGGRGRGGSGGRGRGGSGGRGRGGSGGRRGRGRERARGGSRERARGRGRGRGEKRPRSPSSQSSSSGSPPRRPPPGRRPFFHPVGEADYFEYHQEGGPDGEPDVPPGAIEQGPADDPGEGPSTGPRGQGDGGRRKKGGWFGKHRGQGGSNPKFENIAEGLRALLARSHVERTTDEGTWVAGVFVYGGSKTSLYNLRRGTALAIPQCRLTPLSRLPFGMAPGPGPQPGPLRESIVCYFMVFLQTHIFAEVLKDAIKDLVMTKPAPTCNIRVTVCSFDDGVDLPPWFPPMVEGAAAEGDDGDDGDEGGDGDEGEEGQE

[5] = biological target: Luciferin 4-monooxygenase (Photinus pyralis, UniProt P08659); test: Counter Screen for Luciferase-based Assay Positives. [Related pubchem assays: 620, 618, 411 ]
HT-1080 = test: HT1080 cell viability loss – fluorescence readout (AID 620); type: functional, cell-based; details: Homo sapiens
[6] = Trypanosoma cruzi growth suppression in host cells – NIH3T3 host cells, beta-gal luminescence, confirmation (AID 2044); type: functional, cell-based;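 note: intracellular parasites grown in NIH/3T3 mouse fibroblasts as host cells; luminescent beta-galactosidase reporter signal from transgenic T. cruzi replicating inside host cells; inhibitors lower the luminescence signal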
[7] = NIH3T3 cell viability loss – ATP luminescence, mouse fibroblasts, counter-screen, dose response (AID 2010); type: functional, cell-based;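 note: cells exposed to compound for about 90 hours before reading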
[8] = biological target: T3, Short transient receptor potential channel 4 (Mus musculus, UniProt Q9QUQ5); test: calcium entry via TRPC4 opening agents – cell-based, HEK293 TRPC4/mu-opioid, Fluo-4 calcium, dose response (AID 434937); type: functional
T3 sequence (Q9QUQ5 whole entry): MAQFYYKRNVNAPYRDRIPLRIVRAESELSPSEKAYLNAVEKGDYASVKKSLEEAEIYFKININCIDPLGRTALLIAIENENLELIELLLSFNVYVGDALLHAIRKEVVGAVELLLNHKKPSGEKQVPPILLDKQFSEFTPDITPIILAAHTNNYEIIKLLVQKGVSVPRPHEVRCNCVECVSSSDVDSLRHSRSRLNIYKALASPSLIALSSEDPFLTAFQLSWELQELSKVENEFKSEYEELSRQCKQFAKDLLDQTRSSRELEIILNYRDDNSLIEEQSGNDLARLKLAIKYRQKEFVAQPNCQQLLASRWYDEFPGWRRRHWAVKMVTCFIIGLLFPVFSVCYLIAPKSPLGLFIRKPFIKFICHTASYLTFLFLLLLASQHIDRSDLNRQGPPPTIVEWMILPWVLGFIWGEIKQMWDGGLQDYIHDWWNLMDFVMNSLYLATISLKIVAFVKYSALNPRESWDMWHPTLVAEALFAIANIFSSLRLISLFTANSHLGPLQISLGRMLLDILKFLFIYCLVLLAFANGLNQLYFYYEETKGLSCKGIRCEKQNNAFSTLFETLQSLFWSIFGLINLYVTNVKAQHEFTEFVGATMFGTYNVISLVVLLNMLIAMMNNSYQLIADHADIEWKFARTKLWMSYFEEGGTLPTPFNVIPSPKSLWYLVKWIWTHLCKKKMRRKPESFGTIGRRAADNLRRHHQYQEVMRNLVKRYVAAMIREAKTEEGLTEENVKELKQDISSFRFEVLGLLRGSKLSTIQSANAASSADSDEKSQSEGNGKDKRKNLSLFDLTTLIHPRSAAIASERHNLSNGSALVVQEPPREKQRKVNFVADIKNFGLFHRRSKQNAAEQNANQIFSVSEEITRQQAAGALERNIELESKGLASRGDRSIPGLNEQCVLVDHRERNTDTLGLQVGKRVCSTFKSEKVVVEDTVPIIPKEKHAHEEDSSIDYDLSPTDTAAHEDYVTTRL

[9] = P. falciparum Dd2 growth inhibitors, dose response, SYBR Green, cherry-picked samples (AID 1159567); type: functional, cell-based
[10] = Dd2 malaria parasite growth inhibition potency – SYBR Green, dry powder samples, dose response (AID 1159566); type: functional, cell-based;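 note: potency for growth inhibition with lower SYBR green DNA signal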
[11] = growth inhibition of PfATP4-mutant resistant parasites – NITD609-resistant line, SYBR Green, dry powder, dose response (AID 1159571); type: functional, cell-based;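 note: parasites synchronized at ring stage by sorbitol before testing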
[12] = growth inhibition of yeast DHODH-expressing 3D7 parasites – SYBR Green, dry powder samples, dose response (AID 1159570); type: functional, cell-based;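 note: parasite growth measured after 72 hours of compound exposure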
[13] = biological target: T4, Mannose-6-phosphate isomerase (Homo sapiens, UniProt P34949); test: MPI inhibition at elevated mannose 6-phosphate – biochemical, fluorescence intensity, high mannose 6-phosphate, primary screen (AID 1220)
T4 sequence (P34949 whole entry): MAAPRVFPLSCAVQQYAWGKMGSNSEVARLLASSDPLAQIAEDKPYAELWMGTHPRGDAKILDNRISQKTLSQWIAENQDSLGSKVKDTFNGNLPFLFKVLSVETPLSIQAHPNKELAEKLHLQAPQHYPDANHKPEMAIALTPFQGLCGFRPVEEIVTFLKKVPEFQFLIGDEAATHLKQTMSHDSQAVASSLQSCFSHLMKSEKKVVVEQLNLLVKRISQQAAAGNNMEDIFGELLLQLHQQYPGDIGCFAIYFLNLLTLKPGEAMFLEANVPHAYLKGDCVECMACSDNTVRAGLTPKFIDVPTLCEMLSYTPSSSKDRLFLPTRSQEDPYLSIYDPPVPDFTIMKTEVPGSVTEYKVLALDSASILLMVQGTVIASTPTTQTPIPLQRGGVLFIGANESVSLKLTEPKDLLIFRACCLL

[14] = viability loss in THP-1 monocytes – THP-1 cells, cytotoxicity control for Vif-APOBEC3G degradation inhibitor project, dose response (AID 1117359); type: functional; details: THP-1
[15] = HIV-1 AD8 envelope cell-cell fusion blockers – cherry-pick, dose response (AID 652062); type: functional, cell-based;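 note: luciferase signal from cell-cell fusion driven by HIV-1 clade B AD8 Env; potency is for inhibitors of fusion seen as a drop in luminescence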
[16] = off-target signal loss in HeLa-CEM21 co-culture – HeLa F-luc CTL cells, cherry-picked, counter-screen for HIV-1 Env fusion inhibitor project, dose response (AID 652040); type: functional, cell-based;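 note: potency for signal decrease marking cytotoxic or nonspecific inhibition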
[17] = viability loss in CEM21 cells – cell-based, CellTiter-Glo luminescence, cherry-picked, cytotoxicity control for viral fusion inhibitor project, dose response (AID 652042); type: functional;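 note: potency for signal decrease meaning cytotoxicity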
[18] = blockers of HIV-1 envelope-mediated cell-cell fusion – cherry-pick, dose response (AID 652057); type: functional, cell-based
[19] = blockers of HIV-1 ZM109 envelope-driven cell-cell fusion – HeLa effector, CEM target cells, luciferase, cherry-pick, dose response (AID 652058); type: functional, cell-based;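 note: luciferase signal from HIV-1 Env mediated cell-cell fusion of effector and target cells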

Chain of Mitogen-activated protein kinase 10 (P53779 whole entry): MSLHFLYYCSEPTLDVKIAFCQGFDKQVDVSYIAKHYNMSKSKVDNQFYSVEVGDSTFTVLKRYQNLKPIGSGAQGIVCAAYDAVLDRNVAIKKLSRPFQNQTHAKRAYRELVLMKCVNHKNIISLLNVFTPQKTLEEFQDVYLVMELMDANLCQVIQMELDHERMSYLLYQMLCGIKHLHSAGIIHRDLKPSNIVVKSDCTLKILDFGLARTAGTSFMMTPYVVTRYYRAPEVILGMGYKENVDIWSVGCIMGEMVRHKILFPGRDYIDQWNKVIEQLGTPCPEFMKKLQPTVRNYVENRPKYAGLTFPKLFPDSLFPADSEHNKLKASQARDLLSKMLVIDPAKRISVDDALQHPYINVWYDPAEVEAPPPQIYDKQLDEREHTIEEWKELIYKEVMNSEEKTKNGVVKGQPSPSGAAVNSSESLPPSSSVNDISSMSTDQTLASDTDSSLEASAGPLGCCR
Chain of Luciferin 4-monooxygenase (P08659 whole entry): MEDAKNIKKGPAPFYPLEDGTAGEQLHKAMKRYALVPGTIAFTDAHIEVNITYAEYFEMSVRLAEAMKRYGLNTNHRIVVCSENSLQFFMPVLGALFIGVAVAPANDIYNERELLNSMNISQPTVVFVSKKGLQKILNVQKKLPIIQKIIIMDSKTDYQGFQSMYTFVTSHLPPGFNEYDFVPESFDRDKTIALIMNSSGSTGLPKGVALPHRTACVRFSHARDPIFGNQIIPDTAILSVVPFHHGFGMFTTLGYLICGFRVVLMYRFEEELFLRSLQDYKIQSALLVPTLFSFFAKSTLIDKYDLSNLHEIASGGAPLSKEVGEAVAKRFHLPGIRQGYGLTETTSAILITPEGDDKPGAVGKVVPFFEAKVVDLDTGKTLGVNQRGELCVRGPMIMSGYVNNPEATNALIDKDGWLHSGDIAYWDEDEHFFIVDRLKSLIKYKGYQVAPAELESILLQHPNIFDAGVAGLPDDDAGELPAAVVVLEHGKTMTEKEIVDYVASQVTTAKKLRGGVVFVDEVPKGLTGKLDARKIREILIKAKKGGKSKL

For `Oc1cc(-c2ccccc2)nc2nc3ccccc3n12`, the AC50 [1] was 26 µM (active) and the IC50 [2] was > 31 µM (not active).

For `O=C(Nc1ccccc1F)c1cc2c(s1)-c1ccccc1S(=O)(=O)C2`, the IC50 [3] was 93.7 µM (not active) and the IC50 [4] was 15.9 µM (not active).

In the case of `Cc1ccc(-n2nc3ccc(N)cc3n2)cc1`, the EC50 [5] is reported as > 100 µM (not active) and the EC50 (HT-1080) is reported as > 50 µM (not active).

With `CN(CCOc1ccc(Br)cc1)CC(O)c1ccccc1` (stereo unspecified) the EC50 [6] was < 0.1 µM (active), the EC50 [7] was > 60 µM (not active) and the EC50 [8] was 1.33 µM (active). The EC50 (cells) was 0.269 µM (active).

In the case of `COc1ccc2c3c([nH]c2c1)[C@H](CO)N(C(=O)C1CCCCC1)CC31CCN(Cc2nccs2)CC1`, the AC50 [9] is reported as 0.833 µM (active), the AC50 [10] is reported as 0.183 µM (active) and the AC50 [11] is reported as 0.198 µM (active). For the same compound, the AC50 [12] was 0.158 µM (active).

With `O=[N+]([O-])c1ccc2c(c1NCCO)=NC1(CCCCC1)[N+]=2[O-]` the IC50 [13] was > 50 µM (not active).

For `COc1ccc(/C=C/CN2CCN(Cc3ccccc3)C(CCO)C2)cc1` (stereo unspecified), the CC50 [14] was > 40 µM (active).

With `COc1cc(C)c(CNCCc2c[nH]c3ccccc23)cc1C` the AC50 [15] was 6.52 µM (active), the EC50 [8] was 2.66 µM (active) and the AC50 [16] was 3.7 µM (active). The AC50 [17] was 22.9 µM (active), the AC50 [18] was 1.51 µM (active) and the AC50 [19] was 0.482 µM (active).

With `CCOC(=O)c1ccc(Cn2cnc3ccccc3c2=O)cc1` the IC50 [2] was 12.3 µM (not active).

In the case of `CCCn1ncc(CN2CCCC(C(=O)c3cccc(OC)c3)C2)c1C` (stereo unspecified), the EC50 [6] is reported as < 0.1 µM (active), the EC50 [7] is reported as 26.4 µM (active) and the EC50 (cells) is reported as 0.016 µM (active).
